Test results: ChEMBL document CHEMBL4321795, “Metabolism by Aldehyde Oxidase: Drug Design and Complementary Approaches to Challenges in Drug Discovery” (J Med Chem, 2019)
One block for each compound: values may come before it.

Columns and labels:
Aldehyde oxidase [1] = target: T1, Aldehyde oxidase (Homo sapiens, UniProt Q06278); experiment: Substrate activity at aldehyde oxidase in human liver cytosol assessed as enzyme-mediated M2 metabolite formation at 10 uM after 90 mins by LC-MS/MS analysis; format: ADME, subcellular
T1 sequence (Q06278 whole entry): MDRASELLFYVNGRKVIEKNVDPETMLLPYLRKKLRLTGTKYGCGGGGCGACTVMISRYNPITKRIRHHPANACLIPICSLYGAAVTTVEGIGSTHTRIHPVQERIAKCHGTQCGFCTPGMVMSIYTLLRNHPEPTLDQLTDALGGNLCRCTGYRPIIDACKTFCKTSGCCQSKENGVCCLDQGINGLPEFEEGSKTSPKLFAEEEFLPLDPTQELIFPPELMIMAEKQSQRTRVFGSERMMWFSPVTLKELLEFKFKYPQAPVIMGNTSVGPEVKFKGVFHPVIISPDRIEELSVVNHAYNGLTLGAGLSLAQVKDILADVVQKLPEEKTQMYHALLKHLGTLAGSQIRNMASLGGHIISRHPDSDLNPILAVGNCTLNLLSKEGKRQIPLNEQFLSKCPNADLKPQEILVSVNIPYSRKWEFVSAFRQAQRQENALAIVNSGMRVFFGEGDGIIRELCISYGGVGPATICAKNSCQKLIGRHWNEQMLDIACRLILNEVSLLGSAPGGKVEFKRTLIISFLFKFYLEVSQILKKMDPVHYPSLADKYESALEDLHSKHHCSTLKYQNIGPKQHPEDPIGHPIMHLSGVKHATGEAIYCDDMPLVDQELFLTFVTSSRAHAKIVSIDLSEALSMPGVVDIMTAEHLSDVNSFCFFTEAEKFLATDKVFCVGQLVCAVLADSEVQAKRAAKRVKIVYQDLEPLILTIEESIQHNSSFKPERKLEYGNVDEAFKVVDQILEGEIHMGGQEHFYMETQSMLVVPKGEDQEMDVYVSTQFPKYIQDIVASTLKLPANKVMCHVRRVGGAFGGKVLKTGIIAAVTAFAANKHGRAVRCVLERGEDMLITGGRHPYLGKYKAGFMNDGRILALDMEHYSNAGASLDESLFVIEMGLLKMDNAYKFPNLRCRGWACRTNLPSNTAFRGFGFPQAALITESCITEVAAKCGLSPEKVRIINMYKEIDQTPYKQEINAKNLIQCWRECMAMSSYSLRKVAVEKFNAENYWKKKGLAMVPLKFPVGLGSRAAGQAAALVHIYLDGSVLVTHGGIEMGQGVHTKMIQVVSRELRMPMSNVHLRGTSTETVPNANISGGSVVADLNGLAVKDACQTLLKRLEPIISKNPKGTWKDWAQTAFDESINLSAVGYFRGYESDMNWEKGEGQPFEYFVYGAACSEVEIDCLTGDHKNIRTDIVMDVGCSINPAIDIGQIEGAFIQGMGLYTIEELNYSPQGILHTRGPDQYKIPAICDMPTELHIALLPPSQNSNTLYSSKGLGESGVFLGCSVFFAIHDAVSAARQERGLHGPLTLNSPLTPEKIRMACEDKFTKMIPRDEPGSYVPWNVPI

[2] = Oral bioavailability in BDF1 mouse at 25 mg/kg after 2 to 24 hrs by HPLC analysis; format: ADME, organism-based; conditions: in vivo
[3] = Oral bioavailability in BDF1 mouse at 50 mg/kg after 2 to 24 hrs by HPLC analysis; format: ADME, organism-based; conditions: in vivo
Aldehyde oxidase [4] = target: T1, Aldehyde oxidase; experiment: Substrate activity at aldehyde oxidase in human liver cytosol assessed as enzyme-mediated drug uptake by mass spectrophotometric analysis; format: ADME, subcellular
Aldehyde oxidase 1 [5] = target: T2, Aldehyde oxidase 1 (Rattus norvegicus, UniProt Q9Z0U5); experiment: Substrate activity at aldehyde oxidase in rat liver cytosol assessed as enzyme-mediated drug uptake by mass spectrophotometric analysis; format: ADME, subcellular
T2 sequence (Q9Z0U5 whole entry): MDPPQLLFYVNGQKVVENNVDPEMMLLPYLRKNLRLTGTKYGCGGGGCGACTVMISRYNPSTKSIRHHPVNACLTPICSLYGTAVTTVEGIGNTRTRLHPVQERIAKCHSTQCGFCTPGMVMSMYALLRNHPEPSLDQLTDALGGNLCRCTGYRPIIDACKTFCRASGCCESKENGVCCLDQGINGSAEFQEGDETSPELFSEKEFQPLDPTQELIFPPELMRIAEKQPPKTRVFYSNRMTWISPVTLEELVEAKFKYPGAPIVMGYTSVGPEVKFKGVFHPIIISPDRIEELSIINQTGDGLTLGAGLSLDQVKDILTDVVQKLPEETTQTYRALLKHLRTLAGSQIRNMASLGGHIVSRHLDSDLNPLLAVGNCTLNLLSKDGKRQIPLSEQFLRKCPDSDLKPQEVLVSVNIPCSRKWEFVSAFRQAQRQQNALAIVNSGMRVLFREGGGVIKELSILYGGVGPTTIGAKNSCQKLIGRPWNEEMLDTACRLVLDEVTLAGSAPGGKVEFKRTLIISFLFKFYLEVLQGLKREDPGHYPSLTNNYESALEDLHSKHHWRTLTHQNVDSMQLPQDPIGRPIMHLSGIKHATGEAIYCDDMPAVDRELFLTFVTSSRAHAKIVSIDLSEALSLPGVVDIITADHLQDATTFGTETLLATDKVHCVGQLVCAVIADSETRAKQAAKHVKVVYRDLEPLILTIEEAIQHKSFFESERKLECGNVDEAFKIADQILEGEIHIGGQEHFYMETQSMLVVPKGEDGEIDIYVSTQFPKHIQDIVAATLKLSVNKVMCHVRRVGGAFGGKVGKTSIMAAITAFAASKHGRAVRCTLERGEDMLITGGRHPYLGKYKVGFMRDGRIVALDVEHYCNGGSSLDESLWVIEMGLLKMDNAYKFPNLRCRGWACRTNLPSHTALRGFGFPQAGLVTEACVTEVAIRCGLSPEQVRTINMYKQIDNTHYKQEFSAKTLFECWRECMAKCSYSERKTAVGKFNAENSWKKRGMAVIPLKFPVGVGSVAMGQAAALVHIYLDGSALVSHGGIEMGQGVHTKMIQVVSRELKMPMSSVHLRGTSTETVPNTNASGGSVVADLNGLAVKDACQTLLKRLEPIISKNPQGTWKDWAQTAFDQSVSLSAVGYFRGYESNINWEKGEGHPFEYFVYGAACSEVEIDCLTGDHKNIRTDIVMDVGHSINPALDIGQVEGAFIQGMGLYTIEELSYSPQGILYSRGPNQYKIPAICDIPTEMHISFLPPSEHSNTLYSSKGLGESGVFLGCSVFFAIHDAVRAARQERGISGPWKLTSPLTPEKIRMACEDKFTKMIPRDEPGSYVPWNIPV

Aldehyde oxidase 1 [6] = target: T3, Aldehyde oxidase 1 (Cavia porcellus, UniProt H9TB17); experiment: Substrate activity at aldehyde oxidase in guinea pig liver cytosol assessed as enzyme-mediated drug uptake by mass spectrophotometric analysis; format: ADME, subcellular
T3 sequence (H9TB17 whole entry): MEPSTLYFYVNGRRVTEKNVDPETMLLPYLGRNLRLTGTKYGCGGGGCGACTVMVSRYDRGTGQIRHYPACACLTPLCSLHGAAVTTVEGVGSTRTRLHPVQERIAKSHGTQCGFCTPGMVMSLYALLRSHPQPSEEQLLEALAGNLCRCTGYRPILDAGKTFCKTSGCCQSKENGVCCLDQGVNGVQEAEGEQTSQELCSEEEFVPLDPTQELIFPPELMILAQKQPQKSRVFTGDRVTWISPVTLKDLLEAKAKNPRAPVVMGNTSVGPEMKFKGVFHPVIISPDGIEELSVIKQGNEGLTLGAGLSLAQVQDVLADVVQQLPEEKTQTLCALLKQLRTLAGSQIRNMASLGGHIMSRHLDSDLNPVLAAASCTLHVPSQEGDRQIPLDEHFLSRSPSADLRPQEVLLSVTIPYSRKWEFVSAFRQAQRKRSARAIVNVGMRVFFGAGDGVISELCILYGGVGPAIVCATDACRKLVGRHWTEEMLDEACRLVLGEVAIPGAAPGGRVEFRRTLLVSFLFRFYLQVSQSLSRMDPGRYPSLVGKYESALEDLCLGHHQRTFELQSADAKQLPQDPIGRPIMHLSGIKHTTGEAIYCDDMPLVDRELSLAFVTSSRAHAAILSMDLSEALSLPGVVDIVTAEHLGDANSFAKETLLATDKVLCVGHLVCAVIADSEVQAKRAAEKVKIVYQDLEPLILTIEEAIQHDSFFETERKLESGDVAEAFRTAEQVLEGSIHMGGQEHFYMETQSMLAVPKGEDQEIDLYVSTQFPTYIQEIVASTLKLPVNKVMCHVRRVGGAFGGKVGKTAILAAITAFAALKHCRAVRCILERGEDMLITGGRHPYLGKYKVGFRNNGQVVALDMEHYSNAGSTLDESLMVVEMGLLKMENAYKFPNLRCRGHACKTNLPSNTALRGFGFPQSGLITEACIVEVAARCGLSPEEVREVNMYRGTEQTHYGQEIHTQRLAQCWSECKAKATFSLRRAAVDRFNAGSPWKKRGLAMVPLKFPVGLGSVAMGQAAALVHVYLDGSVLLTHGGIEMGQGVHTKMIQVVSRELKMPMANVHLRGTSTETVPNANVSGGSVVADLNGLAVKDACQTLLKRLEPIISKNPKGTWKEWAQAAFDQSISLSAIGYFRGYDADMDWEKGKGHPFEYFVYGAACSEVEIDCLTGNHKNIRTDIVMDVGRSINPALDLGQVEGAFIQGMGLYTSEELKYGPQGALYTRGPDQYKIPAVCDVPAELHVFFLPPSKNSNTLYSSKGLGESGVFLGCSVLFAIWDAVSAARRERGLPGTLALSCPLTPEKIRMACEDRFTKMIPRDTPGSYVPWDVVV

Cytochrome P450 3A4 [7] = target: T4, Cytochrome P450 3A4 (Homo sapiens, UniProt P08684); experiment: Substrate activity at human CYP3A4 assessed as increase in midazolam AUC relative to control; format: ADME
Cytochrome P450 3A4 [8] = target: T4, Cytochrome P450 3A4; experiment: Substrate activity at human CYP3A4 assessed as increase in atorvastatin AUC relative to control; format: ADME
Cytochrome P450 3A4 [9] = target: T4, Cytochrome P450 3A4; experiment: Substrate activity at human CYP3A4 assessed as increase in methyl-prednisolone AUC relative to control; format: ADME
Aldehyde oxidase [10] = target: T1, Aldehyde oxidase; experiment: Substrate activity at aldehyde oxidase in human liver S9 fractions assessed as enzyme-mediated 2-oxo metabolite formation by measuring half life at 1 uM after 10 to 120 mins by liquid chromatography-tandem mass spectrometry; format: ADME, subcellular; conditions: s9, 1 µM
Aldehyde oxidase [11] = target: T1, Aldehyde oxidase; experiment: Substrate activity at aldehyde oxidase in human liver cytosol assessed as enzyme-mediated drug uptake at 1 uM; format: ADME, subcellular
Aldehyde oxidase 1 [12] = target: T2, Aldehyde oxidase 1; experiment: Substrate activity at aldehyde oxidase in rat liver cytosol assessed as enzyme-mediated drug uptake at 1 uM; format: ADME, subcellular
Aldehyde oxidase 1 [13] = target: T3, Aldehyde oxidase 1; experiment: Substrate activity at aldehyde oxidase in guinea pig liver cytosol assessed as enzyme-mediated drug uptake at 1 uM; format: ADME, subcellular
Aldehyde oxidase [14] = target: T1, Aldehyde oxidase; experiment: Substrate activity at aldehyde oxidase in human hepatocytes assessed as enzyme-mediated drug uptake at 1 uM; format: ADME, cell-based
[15] = Drug level in human plasma treated with imrecoxib at 100 mg, po measured up to 96 hrs by UPLC/Q-TOF MS analysis; format: ADME, organism-based; conditions: in vivo
[16] = Clearance in human plasma; format: ADME, cell-free
[17] = Oral bioavailability in human; format: ADME, organism-based; conditions: in vivo
Aldehyde oxidase [18] = target: T1, Aldehyde oxidase; experiment: Drug level in human plasma treated with [14C]momelotinib assessed as aldehyde oxidase mediated compound formation at 200 mg, po measured at 24 hrs interval for 504 hrs post dose by liquid scintillation counting; format: ADME, organism-based; conditions: in vivo
Aldehyde oxidase 1 [19] = target: T2, Aldehyde oxidase 1; experiment: Drug level in Sprague-Dawley rat plasma treated with [14C]momelotinib assessed as aldehyde oxidase mediated compound formation at 15 mg/kg, po measured up to 48 hrs by liquid scintillation counting; format: ADME, organism-based; conditions: in vivo
[20] = Drug level in Beagle dog plasma treated with [14C]momelotinib at 15 mg/kg, po measured up to 12 hrs by liquid scintillation counting; format: ADME, organism-based, Canis lupus familiaris; conditions: in vivo

T4 sequence (P08684 whole entry): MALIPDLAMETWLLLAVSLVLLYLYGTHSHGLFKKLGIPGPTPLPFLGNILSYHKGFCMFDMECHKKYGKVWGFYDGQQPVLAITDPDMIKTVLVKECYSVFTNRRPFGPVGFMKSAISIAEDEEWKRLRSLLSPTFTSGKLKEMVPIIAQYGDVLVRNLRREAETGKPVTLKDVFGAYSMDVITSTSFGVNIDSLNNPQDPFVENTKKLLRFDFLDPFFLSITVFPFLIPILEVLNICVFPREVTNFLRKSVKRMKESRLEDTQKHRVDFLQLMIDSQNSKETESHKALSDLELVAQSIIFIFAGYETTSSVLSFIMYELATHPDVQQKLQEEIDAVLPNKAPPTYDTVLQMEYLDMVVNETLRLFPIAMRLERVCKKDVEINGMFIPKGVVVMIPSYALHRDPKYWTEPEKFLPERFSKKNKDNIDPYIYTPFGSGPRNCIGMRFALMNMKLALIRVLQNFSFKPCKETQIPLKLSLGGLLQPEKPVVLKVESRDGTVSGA

Compound: CCCN1CC(c2ccc(S(C)(=O)=O)cc2)=C(c2ccc(C=O)cc2)C1=O
Activity (Aldehyde oxidase [1]): 77%

Compound: Oc1ncc(F)cn1
bioavailability [2]: 100%
bioavailability [3]: 78%

Compound: N=C(N)NC(=O)c1cnn(-c2ccc3ncccc3c2)c1C1CC1
t1/2 (Aldehyde oxidase [10]): < 0.083 h

Compound: c1ccc2ncccc2c1 [QUINOLINE]
K (Aldehyde oxidase [11]): 3.6 to 6.1
K (Aldehyde oxidase 1 [12]): 3.6 to 6.1
K (Aldehyde oxidase 1 [13]): 3.6 to 6.1

Compound: CCCN1CC(c2ccc(S(C)(=O)=O)cc2)=C(c2ccc(C(=O)O)cc2)C1=O
Drug uptake [15]: 68%

Compound: N#CCNC(=O)c1ccc(-c2ccnc(Nc3ccc(N4CCOCC4=O)cc3)n2)cc1
Drug uptake (Aldehyde oxidase [18]): 64.2%
Drug uptake (Aldehyde oxidase 1 [19]): < 10%
Drug uptake [20]: < 10%

Compound: COCCc1c(C(=O)NC(=N)N)cnn1-c1cccc2ncccc12
t1/2 (Aldehyde oxidase [10]): 2 h

Other lines, results leading:

K (Aldehyde oxidase [4]): 4.7 to 5.1
K (Aldehyde oxidase 1 [5]): 4.7 to 5.1
K (Aldehyde oxidase 1 [6]): 4.7 to 5.1
Compound: c1ccc2nccnc2c1 [QUINOXALINE]

fold change (FC) (Cytochrome P450 3A4 [7]): 12
fold change (FC) (Cytochrome P450 3A4 [8]): 2.7
fold change (FC) (Cytochrome P450 3A4 [9]): 4.3
Compound: CC[C@@](C)(Nc1ccnc(-c2c[nH]c3ncccc23)n1)C(=O)NCC(F)(F)F [DECERNOTINIB]

K (Aldehyde oxidase [11]): 3.6 to 6.1
K (Aldehyde oxidase 1 [12]): 3.6 to 6.1
K (Aldehyde oxidase 1 [13]): 3.6 to 6.1
K (Aldehyde oxidase [14]): 1.9
Compound: N=C(N)NC(=O)c1cnn(-c2cccc3ncccc23)c1C1CC1 [ZONIPORIDE]

K (Aldehyde oxidase [4]): 4.7 to 5.1
K (Aldehyde oxidase 1 [5]): 4.7 to 5.1
K (Aldehyde oxidase 1 [6]): 4.7 to 5.1
Compound: c1ccc2cnncc2c1 [PHTHALAZINE]

clearance [16]: 12 mL/min/kg
Compound: Cn1cc(-c2ccc3nnc(C(F)(F)c4ccc5ncccc5c4)n3n2)cn1 [JNJ-38877605]

bioavailability [17]: 77%
Compound: Nc1nc2c(ncn2CCC(CO)CO)c(=O)[nH]1 [PENCICLOVIR]

K (Aldehyde oxidase [11]): 3.6 to 6.1
K (Aldehyde oxidase 1 [12]): 3.6 to 6.1
K (Aldehyde oxidase 1 [13]): 3.6 to 6.1
K (Aldehyde oxidase [14]): 1.5
Compound: CCNC(=O)OC1CCN(c2nncc3cc(OC)c(OC)cc23)CC1 [CARBAZERAN]
